{"source": "patent US20110098180A1", "about": "“Herbicide-Resistant Plants, And Polynucleotides And Methods For Providing Same” (United States Department of Agriculture, priority 2002, published 2011)", "experiment_in_all_cases": "Cross-resistance testing, His-tagged column-purified PDS (Table 2A)", "key": {"[1]": {"target": "hydrilla PDS Arg^304 → Cysteine, His-tagged (Hydrilla verticillata, UniProt Q66PY0, R304C)", "sequence (Q66PY0 77-580 R304C)": "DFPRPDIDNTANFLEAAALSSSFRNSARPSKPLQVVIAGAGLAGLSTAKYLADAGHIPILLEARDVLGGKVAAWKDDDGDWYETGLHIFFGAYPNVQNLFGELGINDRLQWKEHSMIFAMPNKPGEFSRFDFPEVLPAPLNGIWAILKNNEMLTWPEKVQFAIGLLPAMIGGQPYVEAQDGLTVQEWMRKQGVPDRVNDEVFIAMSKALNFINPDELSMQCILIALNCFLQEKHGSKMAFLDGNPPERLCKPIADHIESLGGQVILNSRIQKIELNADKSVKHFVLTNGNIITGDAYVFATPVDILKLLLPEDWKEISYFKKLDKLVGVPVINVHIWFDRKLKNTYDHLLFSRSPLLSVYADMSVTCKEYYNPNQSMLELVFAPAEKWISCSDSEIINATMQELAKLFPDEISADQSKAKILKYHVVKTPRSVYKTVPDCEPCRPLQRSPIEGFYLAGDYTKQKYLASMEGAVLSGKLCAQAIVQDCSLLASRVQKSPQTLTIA", "format": "biochemical", "conditions": "Cysteine at 304; His-tagged, column-purified PDS; read-out: I50", "description": "(§1) In further cross-resistance testing similar to that described above, an alternative production and purification protocol was used in the preparation of the mutant PDS proteins, and the activity of the proteins was again tested using the same testing protocol. The alternative approach utilized His-tagging and column purification of the mutant PDS protins. The results are shown in. Table 2A below.\n(§2) The plasmid pHy4ATG5 was made by cloning the Phytoene Desaturase (pds) gene from Hydrilla verticillata, including 323 by upstream of the beginning of the putative mature protein, into the vector TOPO4 (Invitrogen, Carlsbad, Calif.): The 1-323 by region contained three potential start codons (ATG)(positions 1, 114 and 225 bp) in frame with pds. In order to express pds in bacteria, deletion clones were made for each of the three potential start codons with and without ATG. Only the results for possible origins of translation 1 and 225 by (named ORF and 3ORF) are reported here. pds was PCR amplified and subcloned into TOPO4 using pHy4ATG5 as template and the reverse primer RPDS—1849 (5′[…] 3′). The forward primers used were ORF (5′ […] 3′), ORF-ATG (5′ […] 3′), 3_ORF (5′[…] 3′) and 3_ORF-ATG (5′ […] 3′). The resulting plasmids were named pORF, pORF-ATG (minus ATG codon), p3ORF and p3ORF-ATG. The pds-containing EcoRI-fragments of these plasmids were subcloned into the EcoRI site of pRSETb vector (Invitrogen) for Histidine tagging and bacterial expression. The resulting constructs were pHy4SET, pHy4SET-ATG (minus ATG), p3ORFSET and p3ORFSET-ATG.\n(§3) Plasmid p3ORF-ATG was later mutagenized at the amino acid 304 of pds to replace the amino acid Arginine (Arg) by Histidine (His), Threonine (Thr), Serine (Ser), or Cysteine (Cys), using the QuickChange™ Site-Directed Mutagenesis Kit of Stratagene (La Jolla, Calif.). Primers used to replace Arg by His were Hyd-His-For (5′[…] 3′) and Hyd-His-Rev (5′ […] 3′); to replace Arg by Thr we used primers Hyd-Thr-For (5′[…] 3′) and Hyd-Thr-Rev (5′[…] 3′); to replace Arg by Ser we used Hyd-Ser-For (5′[…] 3′) and Hyd-Ser-Rev (5′[…] 3′); and Arg was replaced by Cys using Hyd-Cys-For (5′[…] 3′) and Hyd-Cys-Rev (5′[…] 3′). Resulting plasmids were named: p3ORFHisSet-ATG, p3ORFThrSet-ATG, p3ORFSerSet-ATG and p3ORFCysSet-ATG.\n(§4) All pRSET derived constructs were transformed into BL21(DE3)pLysS cells (Invitrogen), induced with IPTG for protein expression, and the His tag overproduced proteins analyzed by Western blot using Anti-HisG antibody (Invitrogen, cat. #R940-25).\n(§5) When working with His-tagged PDS proteins expressed as described in Example 4, the purified protein used for testing was prepared as follows. BL21(DE3)pLysS cells were grown overnight in 500 ml Luria Broth (LB) supplemented with carbenicillin (100 mg/l) and cloramphenicol (60 mg/l) at 37° C., and induced with 0.3 mM isopropylthio-β-D-galactoside (IPTG) for 3 hrs. Cells were lysed using a French press (Spectronics Instrument) at 20,000 psi and overexpressed PDS was purified on a nickel activated Hitrap Chelating HP column according to the manufacturers instructions (Amersham Bioscience).\n(§6) Generally, PDS protein fractions prepared as described above (Non-His-tagged and His-tagged) were mixed with a soluble fraction from phytoene-producing E. coli cells. For the phytoene producing cells, a plasmid construct containing the genes GGPP synthase and phytoene synthase from Erwinia uredovora, transformed into the appropriate E. coli strain, was used (see, Misawa et al., J. of Bacteriology 177:6575, 1995). This E. coli strain was separately cultured and lysed, and its soluble components collected (“the EB extract”) in a fashion similar to that described above for the PDS-producing cells.\n(§7) His-tagged, purified proteins prepared as described above were transferred to the assay buffer on a PD10 column (Amersham Bioscience) and the concentration was adjusted to 100 μg/mL. […]"}, "[2]": {"system": "hydrilla PDS Arg^304 → Cysteine, His-tagged", "format": "biochemical, Hydrilla verticillata", "conditions": "Cysteine at 304 relative to Arginine; Table 2A", "description": "as §1, §2, §3, §4, §5, §6, §7"}, "[3]": {"target": "hydrilla PDS Arg^304 → Histidine, His-tagged (Hydrilla verticillata, UniProt Q66PY0, R304H)", "sequence (Q66PY0 77-580 R304H)": "as the sequence (Q66PY0 77-580 R304C) above, with C228H counted along it", "format": "biochemical", "conditions": "Histidine at 304; His-tagged, column-purified PDS; read-out: I50", "description": "as §1, §2, §3, §4, §5, §6, §7"}, "[4]": {"system": "hydrilla PDS Arg^304 → Histidine, His-tagged", "format": "biochemical, Hydrilla verticillata", "conditions": "Histidine at 304 relative to Arginine; Table 2A", "description": "as §1, §2, §3, §4, §5, §6, §7"}, "[5]": {"target": "hydrilla PDS Arg^304 → Serine, His-tagged (Hydrilla verticillata, UniProt Q66PY0, R304S)", "sequence (Q66PY0 77-580 R304S)": "as the sequence (Q66PY0 77-580 R304C) above, with C228S counted along it", "format": "biochemical", "conditions": "Serine at 304; His-tagged, column-purified PDS; read-out: I50", "description": "as §1, §2, §3, §4, §5, §6, §7"}, "[6]": {"system": "hydrilla PDS Arg^304 → Serine, His-tagged", "format": "biochemical, Hydrilla verticillata", "conditions": "Serine at 304 relative to Arginine; Table 2A", "description": "as §1, §2, §3, §4, §5, §6, §7"}, "[7]": {"target": "hydrilla PDS Arg^304 → Threonine, His-tagged (Hydrilla verticillata, UniProt Q66PY0, R304T)", "sequence (Q66PY0 77-580 R304T)": "as the sequence (Q66PY0 77-580 R304C) above, with C228T counted along it", "format": "biochemical", "conditions": "Threonine at 304; His-tagged, column-purified PDS; read-out: I50", "description": "as §1, §2, §3, §4, §5, §6, §7"}, "[8]": {"system": "hydrilla PDS Arg^304 → Threonine, His-tagged", "format": "biochemical, Hydrilla verticillata", "conditions": "Threonine at 304 relative to Arginine; Table 2A", "description": "as §1, §2, §3, §4, §5, §6, §7"}}, "data": [{"compound": "CCC(Oc1ccc(F)c(C(F)(F)F)c1)C(=O)NCc1ccccc1", "note": "(stereo not shown) [Beflubutamid]", "values": [{"measurement": "IC50", "setting": "[1]", "result": 232, "unit": "µM"}, {"measurement": "R/S", "setting": "[2]", "result": 3.2}, {"measurement": "IC50", "setting": "[3]", "result": 126, "unit": "µM"}, {"measurement": "R/S", "setting": "[4]", "result": 1.75}, {"measurement": "IC50", "setting": "[5]", "result": 465, "unit": "µM"}, {"measurement": "R/S", "setting": "[6]", "result": 6.5}, {"measurement": "IC50", "setting": "[7]", "result": 106, "unit": "µM"}, {"measurement": "R/S", "setting": "[8]", "result": 1.5}]}, {"compound": "O=C(Nc1ccc(F)cc1F)c1cccnc1Oc1cccc(C(F)(F)F)c1", "note": "[Diflufenican]", "values": [{"measurement": "IC50", "setting": "[1]", "result": 241, "unit": "µM"}, {"measurement": "R/S", "setting": "[2]", "result": 2.4}, {"measurement": "IC50", "setting": "[3]", "result": 103, "unit": "µM"}, {"measurement": "R/S", "setting": "[4]", "result": 1.0}, {"measurement": "IC50", "setting": "[5]", "result": 223, "unit": "µM"}, {"measurement": "R/S", "setting": "[6]", "result": 2.2}, {"measurement": "IC50", "setting": "[7]", "result": 104, "unit": "µM"}, {"measurement": "R/S", "setting": "[8]", "result": 1.0}]}, {"compound": "O=C1C(Cl)C(CCl)CN1c1cccc(C(F)(F)F)c1", "note": "(stereo not shown) [Fluorochloridone]", "values": [{"measurement": "IC50", "setting": "[1]", "result": 283, "unit": "µM"}, {"measurement": "R/S", "setting": "[2]", "result": 2.2}, {"measurement": "IC50", "setting": "[3]", "result": 364, "unit": "µM"}, {"measurement": "R/S", "setting": "[4]", "result": 2.8}, {"measurement": "IC50", "setting": "[5]", "result": 518, "unit": "µM"}, {"measurement": "R/S", "setting": "[6]", "result": 4.0}, {"measurement": "IC50", "setting": "[7]", "result": 210, "unit": "µM"}, {"measurement": "R/S", "setting": "[8]", "result": 1.6}]}, {"compound": "CNC1=C(c2cccc(C(F)(F)F)c2)C(=O)C(c2ccccc2)O1", "note": "(stereo not shown) [Flurtamone]", "values": [{"measurement": "IC50", "setting": "[1]", "result": 1150, "unit": "µM"}, {"measurement": "R/S", "setting": "[2]", "result": 3.8}, {"measurement": "IC50", "setting": "[3]", "result": 630, "unit": "µM"}, {"measurement": "R/S", "setting": "[4]", "result": 2.1}, {"measurement": "IC50", "setting": "[5]", "result": 707, "unit": "µM"}, {"measurement": "R/S", "setting": "[6]", "result": 2.4}, {"measurement": "IC50", "setting": "[7]", "result": 1780, "unit": "µM"}, {"measurement": "R/S", "setting": "[8]", "result": 5.9}]}, {"compound": "CNc1cnn(-c2cccc(C(F)(F)F)c2)c(=O)c1Cl", "note": "[Norflurazon]", "values": [{"measurement": "IC50", "setting": "[1]", "result": 1870, "unit": "µM"}, {"measurement": "R/S", "setting": "[2]", "result": 37.0}, {"measurement": "IC50", "setting": "[3]", "result": 486, "unit": "µM"}, {"measurement": "R/S", "setting": "[4]", "result": 9.7}, {"measurement": "IC50", "setting": "[5]", "result": 4100, "unit": "µM"}, {"measurement": "R/S", "setting": "[6]", "result": 82.0}, {"measurement": "IC50", "setting": "[7]", "result": 1510, "unit": "µM"}, {"measurement": "R/S", "setting": "[8]", "result": 30.0}]}, {"compound": "O=C(Nc1ccc(F)cc1)c1cccc(Oc2cccc(C(F)(F)F)c2)n1", "note": "[Piconilafen, Picolinafen]", "values": [{"measurement": "IC50", "setting": "[1]", "result": 96, "unit": "µM"}, {"measurement": "R/S", "setting": "[2]", "result": 0.3}, {"measurement": "IC50", "setting": "[3]", "result": 112, "unit": "µM"}, {"measurement": "R/S", "setting": "[4]", "result": 0.3}, {"measurement": "IC50", "setting": "[5]", "result": 62, "unit": "µM"}, {"measurement": "R/S", "setting": "[6]", "result": 0.2}, {"measurement": "IC50", "setting": "[7]", "result": 60, "unit": "µM"}, {"measurement": "R/S", "setting": "[8]", "result": 0.2}]}, {"compound": "Fluridone", "values": [{"measurement": "R/S", "setting": "[2]", "result": 2.6}, {"measurement": "R/S", "setting": "[4]", "result": 4.8}, {"measurement": "R/S", "setting": "[6]", "result": 2.0}, {"measurement": "R/S", "setting": "[8]", "result": 7.8}]}]}
